Tests used:
[1] = enterocloster bolteae, 12 h, 2 µM
Description: The drug is tested on Clostridium bolteae strain: ATCCBAA-613 for biotransformation. The drug concentrations were measured before and after a 12-h incubation by liquid-chromatography-coupled mass spectrometry (LC–MS)

[2] = The drug is tested on Clostridium ramosum strain: DSM1402 for biotransformation. The drug concentrations were measured before and after a 12-h incubation by liquid-chromatography-coupled mass spectrometry (LC–MS); conditions: thomasclavelia ramosa, 2 µM
[3] = The drug is tested on Bifidobacterium longum subsp. Infantis strain: CCUG52486 for biotransformation. The drug concentrations were measured before and after a 12-h incubation by liquid-chromatography-coupled mass spectrometry (LC–MS); conditions: 2 µM
[4] = The drug is tested on Eubacterium hallii strain: DSM3353 for biotransformation. The drug concentrations were measured before and after a 12-h incubation by liquid-chromatography-coupled mass spectrometry (LC–MS); conditions: anaerobutyricum hallii, 2 µM
[5] = The drug is tested on Providencia stuartii strain: ATCC25827 for biotransformation. The drug concentrations were measured before and after a 12-h incubation by liquid-chromatography-coupled mass spectrometry (LC–MS); conditions: 2 µM
[6] = The drug is tested on Clostridium scindens strain: ATCC35704 for biotransformation. The drug concentrations were measured before and after a 12-h incubation by liquid-chromatography-coupled mass spectrometry (LC–MS); conditions: 2 µM
[7] = The drug is tested on Clostridium symbiosum strain: ATCC14940 for biotransformation. The drug concentrations were measured before and after a 12-h incubation by liquid-chromatography-coupled mass spectrometry (LC–MS); conditions: 2 µM
[8] = bifidobacterium adolescentis, 12 h, 2 µM
Description: The drug is tested on Bifidobacterium adolescentis strain: ATCC 15703 for biotransformation. The drug concentrations were measured before and after a 12-h incubation by liquid-chromatography-coupled mass spectrometry (LC–MS)

[9] = bacteroides thetaiotaomicron, 12 h, 2 µM
Description: The drug is tested on Bacteroides thetaiotaomicron strain: VPI-5482 for biotransformation. The drug concentrations were measured before and after a 12-h incubation by liquid-chromatography-coupled mass spectrometry (LC–MS)

[10] = parabacteroides johnsonii, 12 h, 2 µM
Description: The drug is tested on Parabacteroides johnsonii strain: DSM18315 for biotransformation. The drug concentrations were measured before and after a 12-h incubation by liquid-chromatography-coupled mass spectrometry (LC–MS)

[11] = The drug is tested on Escherichia coli strain: BW25113 for biotransformation. The drug concentrations were measured before and after a 12-h incubation by liquid-chromatography-coupled mass spectrometry (LC–MS); conditions: 2 µM
[12] = The drug is tested on Providencia rettgeri strain: DSM1131 for biotransformation. The drug concentrations were measured before and after a 12-h incubation by liquid-chromatography-coupled mass spectrometry (LC–MS); format: ADME; design: dose 2 uM, timepoint 0 vs 12 hours; conditions: 2 µM
[13] = parabacteroides distasonis, 12 h, 2 µM
Description: The drug is tested on Parabacteroides distasonis strain: ATCC8503 for biotransformation. The drug concentrations were measured before and after a 12-h incubation by liquid-chromatography-coupled mass spectrometry (LC–MS)

[14] = The drug is tested on Bacteroides pectinophilus strain: ATCC43243 for biotransformation. The drug concentrations were measured before and after a 12-h incubation by liquid-chromatography-coupled mass spectrometry (LC–MS); conditions: 2 µM
[15] = The drug is tested on Collinsella aerofaciens strain: ATCC25986 for biotransformation. The drug concentrations were measured before and after a 12-h incubation by liquid-chromatography-coupled mass spectrometry (LC–MS); conditions: 2 µM
[16] = The drug is tested on Bacteroides sp. WH2 strain: WH2 for biotransformation. The drug concentrations were measured before and after a 12-h incubation by liquid-chromatography-coupled mass spectrometry (LC–MS); conditions: bacteroides sp. wh2, 12 h, 2 µM
[17] = The drug is tested on Enterobacter cancerogenus strain: ATCC35316 for biotransformation. The drug concentrations were measured before and after a 12-h incubation by liquid-chromatography-coupled mass spectrometry (LC–MS); conditions: 2 µM
[18] = The drug is tested on Blautia hansenii strain: DSM20583 for biotransformation. The drug concentrations were measured before and after a 12-h incubation by liquid-chromatography-coupled mass spectrometry (LC–MS); conditions: 2 µM
[19] = The drug is tested on Ruminococcus torques strain: ATCC27756 for biotransformation. The drug concentrations were measured before and after a 12-h incubation by liquid-chromatography-coupled mass spectrometry (LC–MS); format: ADME; design: dose 2 uM, timepoint 0 vs 12 hours; conditions: 2 µM
[20] = bacteroides fragilis, 12 h, 2 µM
Description: The drug is tested on Bacteroides fragilis strain: 3397 (T10) for biotransformation. The drug concentrations were measured before and after a 12-h incubation by liquid-chromatography-coupled mass spectrometry (LC–MS)

Measured: Bacterial Biotransformation

COc1ccnc(C[S+]([O-])c2nc3ccc(OC(F)F)cc3[nH]2)c1OC (stereo not given) [PANTOPRAZOLE]
Compound metabolized: [1] | [2] | [3] | [4] | [5] | [6] | [7] | [8] | [9] | [10] | [11] | [12] | [13] | [14] | [15] | [16] | [17] | [18] | [19] | [20]
